Measured values from patent US20100093624A1, “PEPTIDE THERAPEUTICS THAT BIND VEGF AND METHODS OF USE THEREOF” (Cosmix Therapeutics LLC, priority 2008, published 2010).
“Also recorded” adds a separate entry of the source. Non-standard residues stand in square brackets, D forms with d. Residues, ends and D or L forms follow the SMILES beside them. No end group written: not given here. PEG = not defined here

Assays:
[1] = target: T1, VEGF165 (Homo sapiens, UniProt P15692); experiment: VEGF ELISA of biotin-tagged D-peptides; assay type: binding; settings: VEGF165 coated wells, streptavidin/HRP detection
T1 construct: purchased
T1 sequence (P15692 27-191 isoform P15692-4 limits assumed): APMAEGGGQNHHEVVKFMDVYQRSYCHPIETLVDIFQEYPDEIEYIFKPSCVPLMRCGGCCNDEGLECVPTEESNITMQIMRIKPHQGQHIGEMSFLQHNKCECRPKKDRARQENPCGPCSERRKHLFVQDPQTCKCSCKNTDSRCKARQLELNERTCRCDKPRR
Procedure: An ELISA method was developed in which commercially available VEGF165 was coated into ELISA plate wells (MaxiSorb). Biotin-tagged D-peptides (or an anti-VEGF monoclonal antibody, BAF293, R & D Systems) were then added. After washing binding of peptides or antibody to VEGF was determined by treatment with a streptavidin/HRP conjugate which allows colorimetric detection of the presence of the biotin tagged peptides or antibody (see FIG. 3).

[2] = test system: D-VEGF; experiment: Equilibrium bead-binding assay; settings: bead-bound peptide, silver-stained SDS-PAGE
Procedure: (§1) A quick, qualitative binding assay was devised in which biotin-tagged peptides are immobilized onto streptavidin-coated magnetic beads. The bead-bound peptides are then treated with VEGF (either synthetic or commercially available VEGF 165). After washing the beads are then boiled in denaturing buffer to release bound VEGF which is then detected by silver-stained SDS-PAGE gel (see FIG. 4).

[3] = target: T2, L-VEGF (Homo sapiens, UniProt P15692); experiment: Equilibrium bead-binding assay; settings: bead-bound peptide, silver-stained SDS-PAGE
T2 construct: VEGF (8-50)-thioester; VEGF (51-101)-thioester; made in house; host or cells: chemical synthesis (Boc SPPS, ligation of two peptides, oxidative folding)
T2 sequence (P15692 214-315): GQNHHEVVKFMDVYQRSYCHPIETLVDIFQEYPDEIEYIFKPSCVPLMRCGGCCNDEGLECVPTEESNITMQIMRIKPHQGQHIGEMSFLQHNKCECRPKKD
Procedure: as §1

[4] = target: T1, VEGF165; experiment: Equilibrium bead-binding assay; settings: bead-bound peptide, silver-stained SDS-PAGE
Procedure: as §1

[5] = target: T3, VEGF165 binding to KDR (Homo sapiens, UniProt P15692); experiment: Receptor ELISA (KDR)
T3 sequence (P15692 27-191 isoform P15692-4 limits assumed): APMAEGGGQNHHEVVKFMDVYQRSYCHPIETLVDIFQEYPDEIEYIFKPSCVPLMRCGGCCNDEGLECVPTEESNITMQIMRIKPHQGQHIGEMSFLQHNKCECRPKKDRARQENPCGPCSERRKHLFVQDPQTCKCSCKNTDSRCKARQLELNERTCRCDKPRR

[6] = test system: HUVEC cells; experiment: HUVEC cell-proliferation assay; assay type: cell-based, human; settings: for inhibition of HUVEC growth: tritium-labeled thymidine
Description: Initial investigation into the biological activity of the peptides involved use of a HUVEC cell-proliferation assay. A contractor (ReliaTech, Braunschweig, Germany) with considerable experience in this assay was employed to carry it out. ReliaTech's assay employed a radiation-based system to detect cell growth by monitoring DNA synthesis using tritium-labeled thymidine.
In this assay, pregrown, starved HUVEC cells proliferate in response to exposure to VEGF or bFGF. Inhibition of VEGF activity will result in a measurable decrease in cell proliferation. […] The effects seen for other peptide sequences were attributed to the DMSO content of their stock solutions (DMSO was required to solubilize all peptides in this assay except for 07-D60).

[7] = target: T4, rh-VEGF165 binding to Flt-1 (Homo sapiens, UniProt P15692); experiment: Receptor ELISA (Flt-1)
T4 sequence (P15692 27-191 isoform P15692-4 limits assumed): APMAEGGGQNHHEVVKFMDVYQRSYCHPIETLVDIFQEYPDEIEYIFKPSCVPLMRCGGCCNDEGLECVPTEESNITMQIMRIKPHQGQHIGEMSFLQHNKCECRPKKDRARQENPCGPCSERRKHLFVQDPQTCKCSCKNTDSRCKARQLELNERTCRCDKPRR
Description: VEGF acts on two distinct receptors in-vivo, Flt-1 (VEGFR1) and KDR (VEGFR2). The majority of pro-angiogenic signaling appears to be mediated by KDR. Flt-1 binds to VEGF isoforms with a higher affinity than KDR and may serve a largely regulatory role in vivo. […] These studies have been extended using ELISA assays on VEGF Flt-1 binding. In this experiment a soluble fusion of Flt-1 was coated onto Costar ELISA plates. After blocking (2% BSA), solutions of rh-VEGF165 containing serial dilutions of peptide test articles were added. Detection was accomplished using a biotinylated anti-VEGF antibody in combination with a streptavidin-HRP conjugate. The results of the Flt-1 assay are shown in FIG. 6 along with previous results from the analogous KDR assay for comparison.

[8] = test system: D-VEGF; experiment: ELISA of L-peptides from affinity maturation selection; assay type: binding; settings: 25 nM, also 5M, 100 nM, 50 nM and 5 nM
Procedure: FIG. 15 depicts an ELISA analysis of peptides deriving from sequences of the affinity maturation mRNA display selection at 25 nM. […] Then the plates were incubated with 25 nM of peptides 07-007, 07-071 and 07-072 respectively in HBS buffer for one hour at room temperature followed by 4× washes with HBS buffer. Detection with Streptavidin-Peroxidase stained with o-Phenylendiamin and H2O2 for 3 minutes.
Then the plates were incubated with either 5 μM or 100 nM of peptides 07-007, 07-071 and 07-072 respectively in HBS buffer for one hour at room temperature followed by 4× washes with HBS buffer. Detection with Streptavidin-Peroxidase stained with o-Phenylendiamin and H2O2 for 3 minutes.
Then the plates were incubated either with 50 nM or 5 nM of peptides 07-007, 07-071 and 07-072 respectively in HBS buffer for one hour at room temperature followed by 4× washes with HBS buffer. Detection with Streptavidin-Peroxidase stained with o-Phenylendiamin and H2O2 for 3 minutes.
Then the plates were incubated with 25 nM of peptides 07-007, 07-071 and 07-072 respectively in HBS buffer for one hour at room temperature followed by 4× washes with HBS buffer.

[9] = test system: VEGF-dependent cell growth; experiment: VEGF-dependent cell growth assay; assay type: cell-based
[10] = target: D-VEGF (synthetic VEGF receptor binding domain, residues 8-109, made of D-amino acids) (Homo sapiens (Human)) (UniProt P15692); experiment: judged from ELISA signals on coated D-VEGF at 5 nM to 5 uM peptide; reference 07-007

Molecule: CC(C)C[C@@H](NC(=O)[C@@H](CCCNC(=N)N)NC(=O)[C@H](NC(=O)CNC(=O)[C@@H](CCCNC(=N)N)NC(=O)[C@@H](Cc1c[nH]cn1)NC(=O)[C@@H](Cc1ccccc1)NC(=O)[C@H]1CCCN1C(=O)[C@@H](CC(C)C)NC(=O)[C@@H](CC(C)C)NC(=O)[C@H](NC(=O)[C@@H](Cc1c[nH]c2ccccc12)NC(=O)[C@@H](CO)NC(=O)CNC(=O)[C@@H](CC(C)C)NC(=O)[C@H](NC(=O)[C@@H](CO)NC(=O)[C@@H](CO)NC(=O)[C@H](NC(=O)[C@@H](CC(=O)O)NC(=O)[C@@H](CCC(=O)O)NC(=O)[C@@H](CCC(N)=O)NC(=O)[C@H](NC(=O)CN)C(C)C)C(C)C)[C@H](C)O)C(C)C)[C@H](C)O)C(=O)N[C@H](CO)C(=O)N[C@@H](C(=O)N[C@H](Cc1c[nH]c2ccccc12)C(=O)N[C@@H](C(=O)N[C@@H](C(N)=O)[C@H](C)O)C(C)C)C(C)C [Peptide G2226] (H-G[dV][dQ][dE][dD][dV][dS][dS][dT][dL]G[dS][dW][dV][dL][dL][dP][dF][dH][dR]G[dT][dR][dL][dS][dV][dW][dV][dT]-NH2; N-terminus and C-terminus assumed)
- binding to VEGF165 [1]: bind tightly; also recorded: best affinity
- binding to D-VEGF [2]: no detectable affinity
- binding to L-VEGF [3]: binds only to L-VEGF; also recorded: found to bind
- binding to commercially available VEGF 165 [4]: found to bind
- block of VEGF binding in the receptor ELISA ([5]; receptor not specified): does not appear to block VEGF binding
- activity in cell-based assays [6]: does not appear to be active

Molecule: Avastin: Genentech's anti-VEGF antibody [reference compound]
- inhibition of HUVEC growth [6]: strong inhibition

Molecule: GNALHWVCASNICWRPPWAGRLWGLVRLT [Peptide 07-D60, a modification of G2257]
- inhibition of HUVEC growth compared with Avastin ([6]; 10 micromolar peptide vs 67 nM Avastin): approaches that for 67 nM Avastin
- inhibition of HUVEC growth [6]: inhibit HUVEC growth in a dose dependent manner; also recorded: inhibit HUVEC cell growth; also recorded: block HUVEC growth in a dose-dependent manner

Molecule: GNALHWVCASNICWRPPWAGRLWGLVRLT [Peptide G2257]
- inhibition of VEGF binding to KDR ([5]; receptor ELISA): inhibition of VEGF binding; also recorded: capable of inhibiting VEGF binding to KDR; also recorded: inhibits binding
- inhibition of VEGF binding to Flt-1 [7]: inhibition of VEGF binding; also recorded: inhibits binding

Molecule: GVQEDVSSTLGSWVLLPFHRGTRLSVWVT (also: biotinylated form, place not given here) [G2211/2226]
- binding to VEGF165 [1]: bind tightly
- binding to VEGF165 ([1]; listed as G2211/G2226): bind to VEGF165 selectively

Molecule: H2N-SGSSSGSGSGNALHWVCASNICWRTPWAGQLWRLVRLT-PEG-Bio (H-SGSSSGSGSGNALHWVCASNICWRTPWAGQLWRLVRLT-{PEG-biotin}; cysteine pairing not given here; reading uncertain) [Peptide 07-072]
- affinity towards D-VEGF in comparison to the non-matured sequence deriving from G2306 [8]: vast improvement

Molecule: NALHWVCASNICWRSPWAGRLWGLVRL [Peptide G2306]
- inhibition in a VEGF-dependent cell growth assay [9]: effective dose-dependent inhibition

Molecule: H-SGSSSGSGSGNALHWVCASNICWRTPWAGQLWRLVRLT-{PEG-biotin} (cysteine pairing not given here; reading uncertain) [Peptide 07-072 (L-form; variant carrying all three hot spot mutations)]
- fold improvement of affinity (against the non-mutated sequence 07-007) [10]: > 10 >=fold
